Results: patent US9670204B2, “Compounds and pharmaceutical compositions thereof for the treatment of inflammatory disorders” (Galapagos NV, priority 2013, dated 2017)

target: hENPP2 (UniProtKB/SwissProt Q13822) (Homo sapiens (Human), UniProt Q13822); experiment: hENPP2 biochemical assay, LPC as substrate; conditions: LPC (palmitoyl 16:0) as substrate
Protocol: The principle of the assay consists in quantifying the released choline with an enzymatic method using choline oxidase and peroxidase. Choline oxydation by choline oxydase releases betaine and peroxide. The latter is quantified in presence of HRP that converts the peroxide detection agent TOOS and 4-aminoantipyrine into quinoneimine dye. The appearance of quinoneimine dye is measured spectrophotometrically at 555 nm and is proportional to the amount of choline released by ENPP2. Inhibition of ENPP2 will result in a decrease of the signal.
Compound IC50 values are determined in a hENPP2 (UniProtKB/SwissProt Sequence ref Q13822) biochemical assay using LPC as substrate.
The enzyme is diluted in 50 mM Tris-HCl pH 8.5, 500 mM NaCl, 5 mM KCl, 10 mM CaCl2, 0.1% fatty acid free BSA in a total volume of 10 μL. the reaction is started by the addition of 10 μL of 150 μM LPC (palmitoyl 16:0) diluted in the same buffer as described above and the mixture is incubated at 37° C. for 30 min. The reaction is terminated and choline quantified by the addition of a 25 μL of a mixture containing 0.6 U/mL of choline oxidase, 0.6 U/mL of peroxydase, 1.8 mM TOOS, 1.2 mM amino-antipyrine, 20 mM EGTA (stop-developer solution) diluted in the buffer described above. […] is read on the Envision after an incubation of 30 min at room temperature (Excitation 555 nm, excitation light=70%).

First: CCc1nc2ccc(C3CCN(CC4COC(=O)N4)CC3)cn2c1N(C)c1nc(-c2ccc(F)cc2)cs1 (centres unmarked) [Compound 198, 4-((4-(2-ethyl-3-((4-(4-fluorophenyl)thiazol-2-yl)(methyl)amino)imidazo[1,2-a]pyridin-6-yl)piperidin-1-yl)methyl)oxazolidin-2-one]
Second: CCc1nc2ccc(C3CCN(CC4CNC(=O)O4)CC3)cn2c1N(C)c1nc(-c2ccc(F)cc2)cs1 (centres unmarked) [Compound 122, 5-((4-(2-ethyl-3-((4-(4-fluorophenyl)thiazol-2-yl)(methyl)amino)imidazo[1,2-a]pyridin-6-yl)piperidin-1-yl)methyl)oxazolidin-2-one]
The IC50 of the first is higher: over 1000 nM for the first, 500 to 1000 nM for the second.

First: CCc1nc2ccc(C3CCN(C(=O)CCNC)CC3)cn2c1N(C)c1nc(-c2ccc(F)cc2)cs1 [Compound 132, 1-(4-(2-ethyl-3-((4-(4-fluorophenyl)thiazol-2-yl)(methyl)amino)imidazo[1,2-a]pyridin-6-yl)piperidin-1-yl)-3-(methylamino)propan-1-one]
Second: CCc1nc2ccc(C3CCN(CC(=O)N4CCC(O)C4)CC3)cn2c1N(C)c1nc(-c2ccc(F)cc2)cs1 (centres unmarked) [Compound 223, 2-(4-(2-ethyl-3-((4-(4-fluorophenyl)thiazol-2-yl)(methyl)amino)imidazo[1,2-a]pyridin-6-yl)piperidin-1-yl)-1-(3-hydroxypyrrolidin-1-yl)ethanone]
The IC50 of the first is higher: over 1000 nM for the first, 100 to 500 nM for the second. The second is the more potent here.

CCc1nc2ccc(C3=CCN(S(C)(=O)=O)CC3)cn2c1N(C)c1nc(-c2ccc(C(F)(F)F)cc2)cs1 [Compound 193, N-(2-ethyl-6-(1-(methylsulfonyl)-1,2,3,6-tetrahydropyridin-4-yl)imidazo[1,2-a]pyridin-3-yl)-N-methyl-4-(4-(trifluoromethyl)phenyl) thiazol-2-amine] and CCc1nc2ccc(C3=CCN(S(C)(=O)=O)CC3)cn2c1N(C)c1nc(-c2ccc(OC)cc2)cs1 [Compound 71, N-(2-ethyl-6-(1-(methylsulfonyl)-1,2,3,6-tetrahydropyridin-4-yl)imidazo[1,2-a]pyridin-3-yl)-4-(4-methoxyphenyl)-N-methylthiazol-2-amine] cannot be ordered by IC50: over 1000 nM for the first, over 1000 nM for the second.

CCc1nc2ccc(N3CCN(C(=O)C4CCN(C(=O)OC(C)(C)C)C4)CC3)cn2c1N(C)c1nc(-c2ccc(F)cc2)cs1 (centres unmarked) [Compound 45, tert-butyl 3-(4-(2-ethyl-3-((4-(4-fluorophenyl)thiazol-2-yl)(methyl)amino)imidazo[1,2-a]pyridin-6-yl)piperazine-1-carbonyl)pyrrolidine-1-carboxylate] and CCOC(=O)C(=O)N1CCN(c2ccc3nc(CC)c(N(C)c4nc(-c5ccc(F)cc5)cs4)n3c2)CC1 [Compound 228, ethyl 2-(4-(2-ethyl-3-((4-(4-fluorophenyl)thiazol-2-yl)(methyl)amino)imidazo[1,2-a]pyridin-6-yl)piperazin-1-yl)-2-oxoacetate] cannot be ordered by IC50: over 1000 nM for the first, over 1000 nM for the second.

First: CCc1nc2ccc(C3CCN(CC(=O)N4CCC(CO)C4)CC3)cn2c1N(C)c1nc(-c2ccc(F)cc2)cs1 (centres unmarked) [Compound 117, 2-(4-(2-ethyl-3-((4-(4-fluorophenyl)thiazol-2-yl)(methyl)amino)imidazo[1,2-a]pyridin-6-yl)piperidin-1-yl)-1-(3-(hydroxymethyl)pyrrolidin-1-yl)ethanone]
Second: CCc1nc2ccc(C3CCN(CC(=O)N4CC(CO)C4)CC3)cn2c1N(C)c1nc(-c2ccc(F)cc2)c(CO)s1 [Compound 152]
The IC50 of the first is lower: 100 to 500 nM for the first, 500 to 1000 nM for the second. The first is the more potent here.

CCc1nc2ccc(C3CCN(S(C)(=O)=O)CC3)cn2c1N(C)c1nc(-c2ccc(C(F)(F)F)cc2)cs1 [Compound 84, N-(2-ethyl-6-(1-(methylsulfonyl)piperidin-4-yl)imidazo [1,2-a]pyridin-3-yl)-N-methyl-4-(4-(trifluoromethyl)phenyl) thiazol-2-amine] and CCc1nc2ccc(C3CCN(S(C)(=O)=O)CC3)cn2c1N(C)c1nc(-c2ccc(OC(F)(F)F)cc2)cs1 [Compound 85, N-(2-ethyl-6-(1-(methylsulfonyl)piperidin-4-yl)imidazo [1,2-a]pyridin-3-yl)-N-methyl-4-(4-(trifluoromethoxy)phenyl)thiazol-2-amine] cannot be ordered by IC50: over 1000 nM for the first, over 1000 nM for the second.

First: CCc1nc2ccc(N3CCN(CC(=O)NC)CC3)cn2c1N(C)c1nc(-c2ccc(F)cc2C#N)cs1 [Compound 169, 2-(4-(3-((4-(2-cyano-4-fluorophenyl)thiazol-2-yl)(methyl)amino)-2-ethylimidazo[1,2-a]pyridin-6-yl)piperazin-1-yl)-N-methylacetamide]
Second: CCc1nc2ccc(N3CCN(CC(=O)NC)CC3)cn2c1N(C)c1nc(-c2ccc(F)cc2C#N)c(C)s1 [Compound 163, 2-(4-(3-((4-(2-cyano-4-fluorophenyl)-5-methylthiazol-2-yl)(methyl)amino)-2-ethylimidazo[1,2-a]pyridin-6-yl)piperazin-1-yl)-N-methylacetamide]
The IC50 of the first is lower: 0.01 to 100 nM for the first, 500 to 1000 nM for the second. The first is the more potent here.

CN(C)C(=O)CN1CCC(c2ccc3nc(CCC(N)=O)c(N(C)c4nc(-c5ccc(F)cc5)cs4)n3c2)CC1 [Compound 176, 3-(6-(1-(2-(dimethylamino)-2-oxoethyl)piperidin-4-yl)-3-((4-(4-fluorophenyl)thiazol-2-yl)(methyl)amino)imidazo[1,2-a]pyridin-2-yl)propanamide] and CCc1nc2ccc(C3CCN(C[C@@H]4CNC(=O)O4)CC3)cn2c1N(C)c1nc(-c2ccc(F)cc2)cs1 [Compound 197, (S)-5-((4-(2-ethyl-3-((4-(4-fluorophenyl)thiazol-2-yl)(methyl)amino)imidazo[1,2-a]pyridin-6-yl)piperidin-1-yl)methyl)oxazolidin-2-one] cannot be ordered by IC50: over 1000 nM for the first, over 1000 nM for the second.

First: CCc1nc2ccc(C3=CCN(CC(=O)N(C)C)CC3)cn2c1N(C)c1nc(-c2ccc(F)cc2)ns1 [Compound 190, 2-(4-(2-ethyl-3-((3-(4-fluorophenyl)-1,2,4-thiadiazol-5-yl)(methyl)amino)imidazo[1,2-a]pyridin-6-yl)-5,6-dihydropyridin-1(2H)-yl)-N,N-dimethylacetamide]
Second: CCc1nc2ccc(N3CC(N)C3)cn2c1N(C)c1nc(-c2ccc(F)cc2)cs1 [Compound 177, [6-(3-Amino-azetidin-1-yl)-2-ethyl-imidazo[1,2-a]pyridin-3-yl]-[4-(4-fluoro-phenyl)-thiazol-2-yl]-methyl-amine]
The IC50 of the first is higher: over 1000 nM for the first, 500 to 1000 nM for the second.

First: CCc1nc2ccc(N3CCN(CC(=O)N4CC(F)(F)C4)CC3)cn2c1N(C)c1nc(-c2ccc(F)cc2C#N)cs1 [Compound 165, 2-(2-((6-(4-(2-(3,3-difluoroazetidin-1-yl)-2-oxoethyl)piperazin-1-yl)-2-ethylimidazo[1,2-a]pyridin-3-yl)(methyl)amino)thiazol-4-yl)-5-fluorobenzonitrile]
Second: CCc1nc2ccc(N3CCN(CC(=O)N4CC(F)C4)CC3)cn2c1N(C)c1nc(-c2ccc(F)cc2C#N)cs1 [Compound 164, 2-(2-((2-ethyl-6-(4-(2-(3-fluoroazetidin-1-yl)-2-oxoethyl)piperazin-1-yl)imidazo[1,2-a]pyridin-3-yl)(methyl)amino)thiazol-4-yl)-5-fluorobenzonitrile]
The IC50 of the first is higher: 100 to 500 nM for the first, 0.01 to 100 nM for the second. The second is the more potent here.

First: CCc1nc2ccc(C3CCN(C[C@H]4CNC(=O)O4)CC3)cn2c1N(C)c1nc(-c2ccc(F)cc2)cs1 [Compound 196, (R)-5-((4-(2-ethyl-3-((4-(4-fluorophenyl)thiazol-2-yl)(methyl)amino)imidazo[1,2-a]pyridin-6-yl)piperidin-1-yl)methyl)oxazolidin-2-one]
Second: CCc1nc2ccc(N3CCN(CC(=O)N4CCC4)CC3)cn2c1N(C)c1nc(-c2ccc(F)cc2)cs1 [Compound 30, 1-(azetidin-1-yl)-2-(4-(2-ethyl-3-((4-(4-fluorophenyl)thiazol-2-yl)(methyl)amino)imidazo[1,2-a]pyridin-6 yl)piperazin-1-yl)ethanone]
The IC50 of the first is higher: over 1000 nM for the first, 0.01 to 100 nM for the second. The second is the more potent here.

Compared with CCc1nc2ccc(C3CCN(S(C)(=O)=O)CC3)cn2c1N(C)c1nc(-c2ccc(OC(F)(F)F)cc2)c(CO)s1 [Compound 148, (2-((2-ethyl-6-(1-(methylsulfonyl)piperidin-4-yl)imidazo [1,2-a]pyridin-3-yl)(methyl)amino)-4-(4-(trifluoromethoxy)phenyl)thiazol-5-yl) methanol], CCc1nc2ccc(C3CCN(S(C)(=O)=O)CC3)cn2c1N(C)c1nc(-c2ccc(C(F)(F)F)cc2)c(CO)s1 [Compound 150, (2-((2-ethyl-6-(1-(methylsulfonyl)piperidin-4-yl)imidazo [1,2-a]pyridin-3-yl)(methyl)amino)-4-(4-(trifluoromethyl)phenyl)thiazol-5-yl) methanol] is lower in IC50: over 1000 nM for the first, 500 to 1000 nM for the second.

First: CCc1nc2ccc(C3CCN(CC(=O)N4CCCC4)CC3)cn2c1N(C)c1nc(-c2ccc(F)cc2)c(CO)s1 [Compound 151, 2-(4-(2-ethyl-3-((4-(4-fluorophenyl)-5-(hydroxymethyl)thiazol-2-yl)(methyl)amino)imidazo[1,2-a]pyridin-6-yl)piperidin-1-yl)-1-(pyrrolidin-1-yl)ethanone]
Second: CCc1nc2ccc(N3CCNCC3)cn2c1N(C)c1nc(-c2ccc(F)cc2C#N)c(C)s1 [Compound 161, 2-(2-((2-ethyl-6-(piperazin-1-yl)imidazo[1,2-a]pyridin-3-yl)(methyl)amino)-5-methylthiazol-4-yl)-5-fluorobenzonitrile]
The IC50 of the first is lower: 500 to 1000 nM for the first, over 1000 nM for the second. The first is the more potent here.
